The test system of data set [1] is CD36. In words: Cytoadherence assay: binding of infected erythrocytes made from AE1-modified erythrocytes to immobilized CD36. Format: cell-based, human. The following applies: for binding of treated IEs to CD36, in words: immobilized CD36; for percentage of bound IEs/mm^2 as compared to untreated cells, CD36: uninfected erythrocytes treated (0.5 mg/ml chymotrypsin, 100 μM DIDS or 0.25 mg/ml FMA), then infected, harvested after 40 hr, mean ±SD of triplicate. As to the method:
(§1) Uninfected erythrocytes were treated with either 0.25 mg/ml fluorescein maleimide (FMA) (1 hr at 25° C.), 100 μM DIDS (1 hr at 37° C.) or with 0.5 mg/ml chymotrypsin (0.5 hr at 37° C.). Modified erythrocytes were infected and after 40 hr, mature stages were harvested and a standard cytoadherence assay using CD36 or TSP immobilized on slides was carried out. The numbers are the percentage of bound IEs/mm^2 as compared to untreated cells. Each value represents the mean ±SD of triplicate determinations.
(§2) Partially purified CD36 (CD36 fraction) was obtained from human platelets essentially by the method of Tandon et al., J. Biol Chem, 264:7570 (1989). However, the last purification step, using Ultrogel AcA-44, was omitted. TSP was purified as described in Layler et al., J Biol Chem, 253:8609 (1978). To remove excess amount of Triton X-100 in CD36 solution, 5 ml of a CD36 solution containing 0.1% Triton X-100 (initial concentration 268 μg protein/ml) was incubated with 0.5 g of SM-2 beads (Bio-Rad, Hercules, Calif.) at room temperature for 2 h and dialyzed against 500 ml of distilled water. Five microliters of the dialyzed solution was mounted onto multi-well glass slides, and incubated at 4° C. overnight. To immobilize TSP, 5 μl of TSP solution (50 μg/ml in 50 mM Bis-Tris, 100 mM NaCl, 25 mM calcium lactate, pH 7.4 (BTC)) was spotted on plastic slides (Permanox® plastic, Nunc, Neperville, Ill.) and incubated at 4° C. overnight. After removal of the solution by gentle aspiration, CD36- and TSP-immobilized spots were blocked with 1% BSA in phosphate buffered saline (PBS) at room temperature for 1 h.
(§3) Cytoadherence assays were performed as described in Crandall et al., Exp Parasitol, 73:362 (1991) (“Crandall 1991”). In the case of inhibition assay using peptides, the spots of immobilized protein were pretreated with 10 μl of peptide solution (200 μg/ml) in Bis-Tris buffer (50 mM Bis-Tris, 100 mM NaCl, 2 mM CaCl2, pH 6.6 for CD36; 50 mM Bis-Tris, 100 mM NaCl, 2 mM CaCl2, pH 7.4 for 677 cells; BTC for TSP) at 37° C. for 1 h. After removal of the peptide solution, the slides were placed in individual compartments of a partitioned plastic box containing 7 ml Bis-Tris buffer. Fifty microliters of packed red cells (5-10% parasitemia) was added to each compartment of the plastic box. After incubation at 37° C. for 90 min with gentle rocking, the red cell suspension was carefully aspirated. The slides were rinsed by adding 7 ml of the buffer and 5 min of rocking after which time the buffer was aspirated. The slides were washed three times, fixed, and stained as described in Crandall 1991. The number of bound infected red cells/mm^2 area of immobilized protein was counted by light microscopy.

The test system of a further data set is TSP. In words: Cytoadherence assay: binding of infected erythrocytes made from AE1-modified erythrocytes to immobilized TSP. It is filed as cell-based. The settings on record: for binding of treated IEs to TSP, in words: immobilized TSP; for percentage of bound IEs/mm^2 as compared to untreated cells, TSP: uninfected erythrocytes treated (0.5 mg/ml chymotrypsin, 100 μM DIDS or 0.25 mg/ml FMA), then infected, harvested after 40 hr, mean ±SD of triplicate. The method, then: as §1, §2, §3

A short description of data set [2]: Tolerability in animals immunized with the peptide. Format: in vivo, rabbit.
The subject of data set [3] is immunoglobulins from individuals living in a malaria endemic region. In words: ELISA: binding of IE-surface-eluted human immunoglobulins to immobilized DBR peptide. The following applies: surface bound immunoglobulins eluted from IEs. The method, then: FIG. 4. Recognition of the DBR peptide by immunoglobulins from individuals living in a malaria endemic region (“immunes”). Human sera from either control or “immunes” were added to human erythrocytes infected with P. falciparum (“IEs”) and after incubation, the surface bound immunoglobulins were eluted using isotonic glycine buffer pH 3.0. Biotin labeled peptides were immobilized on 96 well plates using streptavidin, and the specific binding of the surface eluted immunoglobulins to the peptides was determined using alkaline phosphatase conjugated anti-human IgG.
To explore whether DBR is exposed as a consequence of parasite development, sera from individuals living in a region where malaria is endemic or from a control group was incubated with intact live IEs and the surface bound immunoglobulins eluted by a low pH treatment.
(ELISA stands for enzyme-linked immunosorbent assay.)

For data set [4], the target named is T1, CD36 transfected CHO cells (Homo sapiens, UniProt P16671).
T1 construct: expressed in transfected cells; host or cells: CHO cells
T1 sequence (P16671 whole entry): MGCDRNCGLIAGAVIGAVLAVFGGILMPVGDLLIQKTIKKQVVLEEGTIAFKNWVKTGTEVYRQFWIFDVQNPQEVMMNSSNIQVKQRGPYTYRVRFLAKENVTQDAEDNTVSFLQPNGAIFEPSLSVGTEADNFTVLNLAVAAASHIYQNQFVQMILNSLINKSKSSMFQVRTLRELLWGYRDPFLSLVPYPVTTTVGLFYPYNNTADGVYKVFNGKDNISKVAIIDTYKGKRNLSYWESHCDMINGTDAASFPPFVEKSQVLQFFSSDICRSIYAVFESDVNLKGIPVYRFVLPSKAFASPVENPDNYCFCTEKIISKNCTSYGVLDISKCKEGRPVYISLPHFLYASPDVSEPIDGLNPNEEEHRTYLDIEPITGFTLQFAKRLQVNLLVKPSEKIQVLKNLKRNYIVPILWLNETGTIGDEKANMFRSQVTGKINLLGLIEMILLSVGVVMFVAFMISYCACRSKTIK
In words: Interaction of biotin labeled DBR peptide with CD36 transfected CHO cells. Format: binding. The settings on record: 40 μg/ml biotin labeled peptide, 1 hour at 37° C. The method, then:
FIG. 2. Interaction of DBR peptide with CD36 transfected CHO cells. Cells were incubated for 1 hour at 37° C. with 40 μg/ml biotin labeled peptide, followed by 20 μg/ml Alexa-conjugated streptavidin.
To confirm that the DIDS binding region (DBR) of AE1 is involved in IE adhesion, two different kinds of in vitro assays were carried out.

The target in data set [5] is T2, CD36 (Homo sapiens, UniProt P16671).
T2 construct: Partially purified CD36 (CD36 fraction) was obtained from human platelets; from tissue; host or cells: human platelets
T2 sequence (P16671 whole entry): as above
In words: Competitive binding assay: inhibition of IE binding to immobilized CD36 by DBR peptide. The settings on record: immobilized CD36 incubated with peptide before cytoadherence assay. Format: cell-based. As to the method: FIG. 3. […] Immobilized CD36 was incubated with the indicated concentrations of DBR peptide, and then a cytoadherence assay was conducted as shown in the legend of Table 1. Each value represents the mean ±SD of triplicate determinations.
as §2, with “After removal of the solution by gentle aspiration, CD36- and TSP-immobilized spots were blocked with 1% BSA in phosphate buffered saline (PBS) at room temperature for 1 h.” left out
Cytoadherence assays were performed as described in Crandall et al., Exp Parasitol, 73:362 (1991) (“Crandall 1991”). […] The number of bound infected red cells/mm^2 area of immobilized protein was counted by light microscopy.

For the molecule `O=S(=O)(O)c1cc(N=C=S)ccc1C=Cc1ccc(N=C=S)cc1S(=O)(=O)O` [DIDS, 4,4′-diisothiocyanatostilbene-2,2′-disulfonic acid], in the data set with CD36 [1], the “binding of treated IEs to CD36, in words” value is recorded as “lower binding to CD36” and the “percentage of bound IEs/mm^2 as compared to untreated cells, CD36” value is on record as 33.2 ± 4.1 percentage. In the data set on TSP, the “binding of treated IEs to TSP, in words” value is “not to TSP” and the “percentage of bound IEs/mm^2 as compared to untreated cells, TSP” value was 93.5 ± 35.9 percentage.
In the same order, the values of `O=C1OC2(c3ccc(O)cc3Oc3cc(O)ccc32)c2ccc(N3C(=O)C=CC3=O)cc21` [FMA, Fluorescein maleimide] are “did not reduce the binding”, 135.1 ± 12.9 percentage, “did not reduce the binding” and 180.9 ± 26.0 percentage.
For YETFSKLIKIFQDH [DBR peptide], the “anemia or other ill effects in immunized animals” value in data set [2] is “no anemia or other ill effects”. Further, in data set [3], the “recognition of the DBR by immunoglobulins of individuals living in an endemic area” value is “strong humoral immune response”. In addition, the “interaction with CD36 transfected CHO cells” value in data set [4] is “interacted with high affinity and specificity”. The “inhibition of IE binding to immobilized CD36” value with CD36 [5] is reported as “Concentration dependent inhibition”; in the data set with CD36 [5] (listed as DBR peptides) it was “inhibited the binding”.
On to Chymotrypsin, for which, in the data set with CD36 [1], the “binding of treated IEs to CD36, in words” value is given as “significant reduction” and the “percentage of bound IEs/mm^2 as compared to untreated cells, CD36” value was 10.2 + 17.5 percentage. Further, in the data set with TSP, the “binding of treated IEs to TSP, in words” value was “largely unaffected” and the “percentage of bound IEs/mm^2 as compared to untreated cells, TSP” value is 81.0 ± 17.7 percentage.

(Values after patent publication US20050059588A1, “Peptides which generate antibodies resulting in lysis of pathologically adherent erythrocytes” (REGENTS OF THE UNIVERSITY OF CALIFORNIA, priority 2003, published 2005).)
